Test results reported in patent US11254668B2, “Pyrazolo[1,5-A]pyrazin-4-yl and related derivatives” (Pfizer Inc., priority 2017, dated 2022).

Key:
Assay type in all cases: biochemical
Details in all cases: JAK Caliper enzyme assay
[1] = target: TYK2 (Homo sapiens (Human), UniProt P29597); experiment: JAK Caliper Enzyme Assay at 1 mM ATP, TYK2
How it was run: (§1)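 Recombinant human kinase domains phosphorylate a fluorescent synthetic peptide at 1 mM ATP and room temperature, with enzyme level and time tuned to 20–30% conversion before an EDTA stop. Microfluidic mobility-shift separation gives percent product from peak heights. Percent effect against plate controls (DMSO baseline) is plotted versus compound concentration.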

[2] = target: JAK1 (Homo sapiens (Human), UniProt P23458); experiment: JAK Caliper Enzyme Assay at 1 mM ATP, JAK1
How it was run: (§2)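 Recombinant human kinase domains phosphorylate a fluorescent synthetic peptide at 1 mM ATP, room temperature, with enzyme and time tuned for 20-30% conversion; EDTA-stopped. Product/substrate separated by microfluidic mobility shift; percent effect versus DMSO and positive controls fitted to IC50 (nM).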

[3] = target: JAK2 (Homo sapiens (Human), UniProt O60674); experiment: JAK Caliper Enzyme Assay at 1 mM ATP, JAK2
How it was run: as §1

[4] = target: JAK3 (Homo sapiens (Human), UniProt P52333); experiment: JAK Caliper Enzyme Assay at 1 mM ATP, JAK3
How it was run: as §2

Chain of JAK2 (O60674 849-1124): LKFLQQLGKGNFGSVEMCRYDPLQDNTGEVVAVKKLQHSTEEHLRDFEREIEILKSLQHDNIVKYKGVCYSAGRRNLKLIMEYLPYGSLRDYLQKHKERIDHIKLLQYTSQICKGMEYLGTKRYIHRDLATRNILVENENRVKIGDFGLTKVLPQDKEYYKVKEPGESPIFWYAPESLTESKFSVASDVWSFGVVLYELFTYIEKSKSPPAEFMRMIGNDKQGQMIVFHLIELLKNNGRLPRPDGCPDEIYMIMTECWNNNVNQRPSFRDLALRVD
Chain of JAK1 (P23458 875-1153): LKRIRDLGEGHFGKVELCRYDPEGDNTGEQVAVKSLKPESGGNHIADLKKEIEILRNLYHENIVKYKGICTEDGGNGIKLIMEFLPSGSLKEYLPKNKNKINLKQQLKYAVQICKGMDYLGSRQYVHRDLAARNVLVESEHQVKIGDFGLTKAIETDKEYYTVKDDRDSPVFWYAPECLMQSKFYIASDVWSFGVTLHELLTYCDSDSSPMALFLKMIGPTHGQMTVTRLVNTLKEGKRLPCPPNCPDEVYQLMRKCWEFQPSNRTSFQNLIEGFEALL
Chain of JAK3 (P52333 822-1111): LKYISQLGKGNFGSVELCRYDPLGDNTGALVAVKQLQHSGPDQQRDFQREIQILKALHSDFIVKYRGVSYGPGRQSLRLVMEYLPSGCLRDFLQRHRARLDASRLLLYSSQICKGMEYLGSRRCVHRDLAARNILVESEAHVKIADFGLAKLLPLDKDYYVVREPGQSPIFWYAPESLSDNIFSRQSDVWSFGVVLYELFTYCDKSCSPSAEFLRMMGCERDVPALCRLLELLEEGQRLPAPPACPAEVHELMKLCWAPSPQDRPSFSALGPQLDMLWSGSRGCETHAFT
Chain of TYK2 (P29597 897-1176): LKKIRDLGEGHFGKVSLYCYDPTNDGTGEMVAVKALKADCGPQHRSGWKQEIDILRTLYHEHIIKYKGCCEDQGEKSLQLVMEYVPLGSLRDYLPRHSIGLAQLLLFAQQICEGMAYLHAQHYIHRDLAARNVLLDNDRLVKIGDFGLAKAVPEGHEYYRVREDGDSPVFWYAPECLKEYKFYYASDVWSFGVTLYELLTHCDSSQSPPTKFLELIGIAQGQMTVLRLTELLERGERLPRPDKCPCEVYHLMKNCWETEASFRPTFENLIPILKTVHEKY

IC50 [1]	IC50 [2]	IC50 [3]	IC50 [4]	SMILES
0.139 µM	6.43 µM	0.805 µM	> 10 µM	N#CC[C@]1(n2ncc(-c3cc(-c4ccc(OCCN)cc4)cc4ncccc34)n2)C[C@H](C#N)C1 [Example 440, trans-3-(4-{7-[4-(2-aminoethoxy)phenyl]quinolin-5-yl}-2H-1,2,3-triazol-2-yl)-3-(cyanomethyl)cyclobutanecarbonitrile]
1.1 µM	> 10 µM	> 10 µM	> 10 µM	CS(=O)(=O)N1CC(CC#N)(n2ncc(-c3cc(-c4ccc(F)cc4O)cc4ncccc34)n2)C1 [Example 441, [3-{4-[7-(4-fluoro-2-hydroxyphenyl)quinolin-5-yl]-2H-1,2,3-triazol-2-yl}-1-(methylsulfonyl)azetidin-3-yl]acetonitrile]
7.54 µM	> 10 µM	> 10 µM	> 10 µM	CS(=O)(=O)N1CC(CC#N)(n2ncc(-c3cc(-c4cc(F)ccc4O)cc4ncccc34)n2)C1 [Example 442]
0.631 µM	> 10 µM	6.46 µM	> 10 µM	CS(=O)(=O)N1CC(CC#N)(n2ncc(-c3cc(-c4cc(O)cc(F)c4)cc4ncccc34)n2)C1 [Example 443]
0.077 µM	1.24 µM	1.18 µM	> 10 µM	CS(=O)(=O)N1CC(CC#N)(n2ncc(-c3cc(-c4ccc(O)c(F)c4)cc4ncccc34)n2)C1 [Example 444]
0.33 µM	> 10 µM	5.61 µM	> 10 µM	CS(=O)(=O)N1CC(CC#N)(n2ncc(-c3cc(-c4cccc(CO)c4F)cc4ncccc34)n2)C1 [Example 445, [3-(4-{7-[2-fluoro-3-(hydroxymethyl)phenyl]quinolin-5-yl}-2H-1,2,3-triazol-2-yl)-1-(methylsulfonyl)azetidin-3-yl]acetonitrile]
0.101 µM	4.73 µM	0.964 µM	> 10 µM	CS(=O)(=O)N1CC(CC#N)(n2ncc(-c3cc(-c4ccc(F)c(CO)c4)cc4ncccc34)n2)C1 [Example 446, [3-(4-{7-[4-fluoro-3-(hydroxymethyl)phenyl]quinolin-5-yl}-2H-1,2,3-triazol-2-yl)-1-(methylsulfonyl)azetidin-3-yl]acetonitrile]
0.017 µM	0.18 µM	0.16 µM	9.4 µM	N#CC[C@]1(n2ncc(-c3cc(-c4ccc(-c5nnn[nH]5)cc4)cc4ncccc34)n2)C[C@@H](C#N)C1 [Example 447, cis-3-(cyanomethyl)-3-(4-{7-[4-(1H-tetrazol-5-yl)phenyl]quinolin-5-yl}-2H-1,2,3-triazol-2-yl)cyclobutanecarbonitrile]
0.257 µM	> 10 µM	2.68 µM	> 10 µM	CS(=O)(=O)N1CC(CC#N)(n2ncc(-c3cc(-c4ccc5c(c4)C(=O)NC5)cc4ncccc34)n2)C1 [Example 448, [1-(methylsulfonyl)-3-{4-[7-(3-oxo-2,3-dihydro-1H-isoindol-5-yl)quinolin-5-yl]-2H-1,2,3-triazol-2-yl}azetidin-3-yl]acetonitrile]
0.368 µM	> 10 µM	6.5 µM	> 10 µM	N#CC[C@]1(n2ncc(-c3cc(-c4cccc5c4NC(=O)C5)cc4ncccc34)n2)C[C@@H](C#N)C1 [Example 449, cis-3-(cyanomethyl)-3-{4-[7-(2-oxo-2,3-dihydro-1H-indol-7-yl)quinolin-5-yl]-2H-1,2,3-triazol-2-yl}cyclobutanecarbonitrile]
1.43 µM	> 10 µM	> 10 µM	> 10 µM	N#CCC1(n2ncc(-c3cc(-c4cccc5c4NC(=O)C5)cc4ncccc34)n2)CC(C#N)C1 (stereo not drawn) [Example 450, trans-3-(cyanomethyl)-3-{4-[7-(2-oxo-2,3-dihydro-1H-indol-7-yl)quinolin-5-yl]-2H-1,2,3-triazol-2-yl}cyclobutanecarbonitrile]
0.283 µM	> 10 µM	7.16 µM	> 10 µM	CS(=O)(=O)N1CC(CC#N)(n2cnc(-c3cc(-c4ccc(=O)[nH]c4)cc4ncccc34)n2)C1 [Example 451, [1-(methylsulfonyl)-3-{3-[7-(6-oxo-1,6-dihydropyridin-3-yl)quinolin-5-yl]-1H-1,2,4-triazol-1-yl}azetidin-3-yl]acetonitrile]
0.322 µM	7.19 µM	6.81 µM	> 10 µM	CS(=O)(=O)N1CC(CC#N)(n2cnc(-c3cc(-c4ccn[nH]4)cc4ncccc34)n2)C1 [Example 452, [1-(methylsulfonyl)-3-{3-[7-(1H-pyrazol-5-yl)quinolin-5-yl]-1H-1,2,4-triazol-1-yl}azetidin-3-yl]acetonitrile]
0.259 µM	8.3 µM	3.18 µM	> 10 µM	CS(=O)(=O)N1CC(CC#N)(n2cnc(-c3cc(-c4cn[nH]c4)cc4ncccc34)n2)C1 [Example 453, [1-(methylsulfonyl)-3-{3-[7-(1H-pyrazol-4-yl)quinolin-5-yl]-1H-1,2,4-triazol-1-yl}azetidin-3-yl]acetonitrile]
0.036 µM	0.912 µM	0.468 µM	> 10 µM	N#CC[C@]1(n2cc(-c3cc(-c4cc[nH]n4)cc4nccn34)cn2)C[C@@H](C#N)C1 [Example 454, cis-3-(cyanomethyl)-3-{4-[7-(1H-pyrazol-3-yl)imidazo[1,2-a]pyridin-5-yl]-1H-pyrazol-1-yl}cyclobutanecarbonitrile]
0.319 µM	> 10 µM	5.68 µM	> 10 µM	N#CC[C@]1(n2cc(-c3cc(-c4cc[nH]n4)cc4nccn34)cn2)C[C@H](C#N)C1 [Example 455, trans-3-(cyanomethyl)-3-{4-[7-(1H-pyrazol-3-yl)imidazo[1,2-a]pyridin-5-yl]-1H-pyrazol-1-yl}cyclobutanecarbonitrile]
0.126 µM	1.31 µM	0.812 µM	> 10 µM	N#CC[C@]1(n2cc(-c3cc(-c4cn[nH]c4)cc4nccn34)cn2)C[C@@H](C#N)C1 [Example 456, cis-3-(cyanomethyl)-3-{4-[7-(1H-pyrazol-4-yl)imidazo[1,2-a]pyridin-5-yl]-1H-pyrazol-1-yl}cyclobutanecarbonitrile]
0.252 µM	> 10 µM	3.94 µM	> 10 µM	Cn1cc(-c2cc(-c3cnn(C4(CC#N)CN(CC(F)(F)F)C4)c3)n3ccnc3c2)cn1 [Example 457, [3-{4-[7-(1-methyl-1H-pyrazol-4-yl)imidazo[1,2-a]pyridin-5-yl]-1H-pyrazol-1-yl}-1-(2,2,2-trifluoroethyl)azetidin-3-yl]acetonitrile]
0.297 µM	> 10 µM	3.15 µM	> 10 µM	Cn1cc(-c2cc(-c3cnn([C@]4(CC#N)C[C@@H](C#N)C4)c3)n3ccnc3c2)cn1 [Example 459, trans-3-(cyanomethyl)-3-{4-[7-(1-methyl-1H-pyrazol-4-yl)imidazo[1,2-a]pyridin-5-yl]-1H-pyrazol-1-yl}cyclobutanecarbonitrile]
0.395 µM	> 10 µM	5.36 µM	> 10 µM	CO[C@H]1C[C@@](CC#N)(n2cc(-c3cc(-c4cnn(C)c4)cc4nccn34)cn2)C1 [Example 460, (cis-3-methoxy-1-{4-[7-(1-methyl-1H-pyrazol-4-yl)imidazo[1,2-a]pyridin-5-yl]-1H-pyrazol-1-yl}cyclobutyl)acetonitrile]
0.02 µM	1.56 µM	0.389 µM	> 10 µM	Cc1cc(-c2cc(-c3cnn([C@]4(CC#N)C[C@@H](C#N)C4)c3)n3ccnc3c2)[nH]n1 [Example 461, trans-3-(cyanomethyl)-3-{4-[7-(3-methyl-1H-pyrazol-5-yl)imidazo[1,2-a]pyridin-5-yl]-1H-pyrazol-1-yl}cyclobutanecarbonitrile]
0.02 µM	0.873 µM	0.188 µM	> 10 µM	Cc1cc(-c2cc(-c3cnn([C@]4(CC#N)C[C@H](C#N)C4)c3)n3ccnc3c2)n[nH]1 [Example 462, cis-3-(cyanomethyl)-3-{4-[7-(5-methyl-1H-pyrazol-3-yl)imidazo[1,2-a]pyridin-5-yl]-1H-pyrazol-1-yl}cyclobutanecarbonitrile]
2.14 µM	> 10 µM	> 10 µM	> 10 µM	CO[C@H]1C[C@@](CC#N)(n2cc(-c3cc(-c4c[nH]nc4CO)cc4nccn34)cn2)C1 [Example 463, [cis-1-(4-{7-[3-(hydroxymethyl)-1H-pyrazol-4-yl]imidazo[1,2-a]pyridin-5-yl}-1H-pyrazol-1-yl)-3-methoxycyclobutyl]acetonitrile]
4.66 µM	> 10 µM	> 10 µM	> 10 µM	CO[C@H]1C[C@](CC#N)(n2cc(-c3cc(-c4c[nH]nc4CO)cc4nccn34)cn2)C1 [Example 464, [trans-1-(4-{7-[3-(hydroxymethyl)-1H-pyrazol-4-yl]imidazo[1,2-a]pyridin-5-yl}-1H-pyrazol-1-yl)-3-methoxycyclobutyl]acetonitrile]
0.054 µM	6 µM	0.859 µM	> 10 µM	Cc1ncc(-c2cc(-c3cnn([C@]4(CC#N)C[C@H](C#N)C4)c3)n3ccnc3c2)[nH]1 [Example 465, cis-3-(cyanomethyl)-3-{4-[7-(2-methyl-1H-imidazol-5-yl)imidazo[1,2-a]pyridin-5-yl]-1H-pyrazol-1-yl}cyclobutanecarbonitrile]
